Measured values reported in patent US6322532A, “Sonophoresis method and apparatus” (3M Innovative Properties Company, priority 1999, dated 2001).

Test: Franz diffusion cell permeation of salicylic acid across cadaver skin with/without flexure mode sonophoresis transducer
Parameters: species or system human
Experimental: A similar experiment to that described in Example 1 was carried out using salicylic acid. […] About 20 ml donor solution (ppb) with excess (beyond solubility levels) of salicylic acid was added to the upper portion of the Franz cells atop the cadaver skin.

O=C(O)c1ccccc1O [salicylic acid]
average sonophoretic drug flux (active cells, about 2 W/cm^2, about 27 kHz, about 200 V (rms), continuous duty cycle, about 7 cm^2 cadaver skin, first few hours): about 700 micrograms/cm^2 /hr
average passive drug flux (four passive cells, no sonophoresis transducer, 2 cm^2 cadaver skin, 10 ml receptor fluid, 5 hr experiment): about 200 micrograms/cm^2 /hr
